The results in this text go back to patent US20150290306A1, “COMPOSITIONS AND METHODS FOR DIAGNOSIS AND TREATMENT OF MALIGNANT GLIOMAS” (priority 2012, published 2015).

The test system of the experiment is PBMCs. The experiment can be described thus: PBMC culture with candidate peptides for 14 days, IFN-γ and IL-5 in supernatant by ELISA. The following applies: for IFN-γ/IL-5 ratio (geometric mean): peptide 10 μg/mL. The experiment is classed as cell-based, human. The source says:
Measurement of antigen-specific T cell responses in the peripheral blood in humans differs depending on whether responses are high affinity interactions with foreign (viral) epitopes or lower affinity interactions involving recognition of self-antigens. […] Given that T cell responses directed against MAGE and IL-13Rα2 antigens also involve T cells with low affinity to these self-antigens, antigen-specific responses were quantified based on cytokine secretion, as recently described in a phase I study of patients with MS (Viglietta V, et al: Neurology 2008, 71(12):917-924). Cytokine production was quantified by ELISA, defining a positive T cell response for each patient as the amounts of IFN-γ or IL-5 that were >50 pg/mL and two standard deviations above the mean cytokine levels secreted after stimulation of cells from that patient with negative control MBP peptide.
Twenty-five mL of blood from patients or healthy subjects was obtained under an IRB-approved protocol. All samples of blood from patients were taken at the time of surgery. […] All tumor-bearing patients received similar doses of steroids and anti-epileptic medications at the time of tumor debulking surgery prior to obtaining peripheral blood for these studies. T cell responses in patients with meningiomas controlled for influences of steroids on antigen responsiveness and cytokine balance. Tumor tissue was independently confirmed in all cases by formal pathological analysis. PBMCs were purified from heparinized blood by density gradient centrifugation using Ficoll-Hypaque (GE Healthcare Biosciences), and cells were then washed with PBS and viable cells quantified by trypan-blue staining.
Freshly isolated PBMCs were plated at 2×10^5 cells/well in 200 μl of serum-free X-VIVO15 (X15) media (Lonza) in 96-well round-bottom cell culture plates. Candidate peptides, in addition to a negative control peptide derived from MBP were added at a concentration of 10 μg/mL and anti-CD3 mAb was added at a concentration of 1 μg/mL. Six T cell cultures were established for each condition in each subject, and 100 IU/ml of IL-2 was added on the following day. Plates were incubated at 37° C. and 5% CO2 for 14 days, with media changed as needed, and the supernatant was harvested to evaluate T cell responses (cytokines) induced by each condition using ELISA. In a limited number (n=3) of patients, cytokine production was assessed after both 7 and 14 days. […] An IFN-γ ELISPOT assay was performed as previously described (Lv H, Havari E, et al: J Clin Invest, 121(4):1561-1573).
To detect T helper cell responses directed against the candidate peptides, IFN-γ and IL-5 were measured by ELISA using commercially available kits supplied by BD bioscience. IFN-γ was used as a prototypic Th1 cytokine and IL-5 was chosen as a prototypic cytokine released by Th2 cells because unlike IL-4 there would be no potential consumption by antigen-specific T cells in the culture conditions (Kourilsky P, Truffa-Bachi P: Trends Immunol 2001, 22(9):502-509).
On the technique in general: In an ELISA, binding on a coated surface is turned into a signal by an enzyme label.

As to KVDELAHFLLRKYRAK [MAGE-A3112-127], the “positive wells among 6 primary T cell responses (IFN-γ or IL-5 ELISA)” value (Healthy Subject 1) is “+++ (+++/++++ cell=3-4 positive wells)”; the “positive wells among 6 primary T cell responses (IFN-γ or IL-5 ELISA)” value (Healthy Subject 3) is “++ (+/++ cell=1-2 positive wells)”; the “positive wells among 6 primary T cell responses (IFN-γ or IL-5 ELISA)” value (Healthy Subject 4) is given as “++ (+/++ cell=1-2 positive wells)”; the “positive wells among 6 primary T cell responses (IFN-γ or IL-5 ELISA)” value (Healthy Subject 5) is recorded as “+ (+/++ cell=1-2 positive wells)”; the “positive wells among 6 primary T cell responses (IFN-γ or IL-5 ELISA)” value (Meningioma 5) is on record as “+++ (+++/++++ cell=3-4 positive wells)”; the “positive wells among 6 primary T cell responses (IFN-γ or IL-5 ELISA)” value (Meningioma 6) is reported as “+ (+/++ cell=1-2 positive wells)”. Besides, the “positive wells among 6 primary T cell responses (IFN-γ or IL-5 ELISA)” value by setting is: (Primary GBM 2) “++ (+/++ cell=1-2 positive wells)”; (Primary GBM 3) “++ (+/++ cell=1-2 positive wells)”; (Primary GBM 4) “+ (+/++ cell=1-2 positive wells)”; (Primary GBM 5) “+++++ (+++++/++++++ cell=5-6 positive wells)”; (Primary GBM 6) “++ (+/++ cell=1-2 positive wells)”; (Primary GBM 7) “+++ (+++/++++ cell=3-4 positive wells)”. Moreover, the “positive wells among 6 primary T cell responses (IFN-γ or IL-5 ELISA)” value reads like this: (Primary GBM 8) “++++ (+++/++++ cell=3-4 positive wells)”; (Recurrent GBM 1) “+ (+/++ cell=1-2 positive wells)”; (Recurrent GBM 2) “+ (+/++ cell=1-2 positive wells)”; (Recurrent GBM 3) “++ (+/++ cell=1-2 positive wells)”; (Recurrent GBM 4) “++ (+/++ cell=1-2 positive wells)”; (Recurrent GBM 5) “+ (+/++ cell=1-2 positive wells)”. In addition, the “IFN-γ/IL-5 ratio (geometric mean)” value came out at 4.9 (healthy subjects), 0.2 (patients with primary GBMs) and 0.04 (patients with recurrent GBMs).
For the sequence LLRFWLPFGFILILV [IL-13Ra2341-355], the “positive wells among 6 primary T cell responses (IFN-γ or IL-5 ELISA)” value is, setting by setting: (Healthy Subject 2) “+ (+/++ cell=1-2 positive wells)”; (Healthy Subject 4) “+ (+/++ cell=1-2 positive wells)”; (Healthy Subject 5) “++++ (+++/++++ cell=3-4 positive wells)”; (Healthy Subject 6) “+ (+/++ cell=1-2 positive wells)”; (Meningioma 5) “++ (+/++ cell=1-2 positive wells)”; (Meningioma 6) “+ (+/++ cell=1-2 positive wells)”. The “positive wells among 6 primary T cell responses (IFN-γ or IL-5 ELISA)” value was “+ (+/++ cell=1-2 positive wells)” (Primary GBM 1); “++ (+/++ cell=1-2 positive wells)” (Primary GBM 2); “+++++ (+++++/++++++ cell=5-6 positive wells)” (Primary GBM 3); “++ (+/++ cell=1-2 positive wells)” (Primary GBM 5); “++ (+/++ cell=1-2 positive wells)” (Primary GBM 6); “+++ (+++/++++ cell=3-4 positive wells)” (Primary GBM 7). Besides, the “positive wells among 6 primary T cell responses (IFN-γ or IL-5 ELISA)” value by setting is: (Primary GBM 8) “++++ (+++/++++ cell=3-4 positive wells)”; (Recurrent GBM 1) “++ (+/++ cell=1-2 positive wells)”. Also, the “IFN-γ/IL-5 ratio (geometric mean)” value worked out at 1.6 (healthy subjects), 0.3 (patients with primary GBMs) and 0.02 (patients with recurrent GBMs).
Regarding LRKYRAKELVTKAEML [MAGE-A3121-136], the “positive wells among 6 primary T cell responses (IFN-γ or IL-5 ELISA)” value is, setting by setting: (Healthy Subject 1) “+++ (+++/++++ cell=3-4 positive wells)”; (Healthy Subject 2) “+ (+/++ cell=1-2 positive wells)”; (Healthy Subject 3) “+++ (+++/++++ cell=3-4 positive wells)”; (Healthy Subject 4) “+ (+/++ cell=1-2 positive wells)”; (Healthy Subject 5) “+ (+/++ cell=1-2 positive wells)”; (Healthy Subject 6) “+ (+/++ cell=1-2 positive wells)”. The “positive wells among 6 primary T cell responses (IFN-γ or IL-5 ELISA)” value by setting is: (Meningioma 1) “+ (+/++ cell=1-2 positive wells)”; (Meningioma 2) “+++ (+++/++++ cell=3-4 positive wells)”; (Meningioma 6) “+ (+/++ cell=1-2 positive wells)”; (Primary GBM 1) “++ (+/++ cell=1-2 positive wells)”; (Primary GBM 2) “++ (+/++ cell=1-2 positive wells)”; (Primary GBM 3) “++++ (+++/++++ cell=3-4 positive wells)”. Further, the “positive wells among 6 primary T cell responses (IFN-γ or IL-5 ELISA)” value by setting is: (Primary GBM 4) “++ (+/++ cell=1-2 positive wells)”; (Primary GBM 5) “++++ (+++/++++ cell=3-4 positive wells)”; (Primary GBM 6) “++ (+/++ cell=1-2 positive wells)”; (Primary GBM 7) “++++ (+++/++++ cell=3-4 positive wells)”; (Primary GBM 8) “++ (+/++ cell=1-2 positive wells)”; (Recurrent GBM 1) “++ (+/++ cell=1-2 positive wells)”. Also, the “positive wells among 6 primary T cell responses (IFN-γ or IL-5 ELISA)” value is on record as “+ (+/++ cell=1-2 positive wells)” (Recurrent GBM 3), “+ (+/++ cell=1-2 positive wells)” (Recurrent GBM 4) and “+ (+/++ cell=1-2 positive wells)” (Recurrent GBM 5). The “IFN-γ/IL-5 ratio (geometric mean)” value by setting is: (healthy subjects) 8.1; (patients with primary GBMs) 0.1; (patients with recurrent GBMs) 0.06.
